According to patent US20150306108A1, “COMPOSITIONS OF ALDH1A1 INHIBITORS AND METHODS OF USE IN TREATING CANCER” (Indiana University Research & Technology Corporation, priority 2014, published 2015):

Key:
IGROV1 cells = test: Cell viability by trypan blue exclusion; assay type: cell-based, human; conditions: 7 days
Method: Cell viability was measured by the trypan blue (ThermoScientific) exclusion test. Cell proliferation was quantified by the MTT assay. Spheroids were counted after centrifugation at 300×g for 5 minutes. All assays were performed in four replicates. Data are presented as means±SEM.

ALDH4A1 = biological target: T1, ALDH4A1 (Homo sapiens, UniProt P30038); test: ALDH4A1 selectivity assay; assay type: biochemical; conditions: 20 μM compound
T1 construct: The full length cDNA for human ALDH4A1 and ALDH5A1 were generously provided by Dania Mochly-Rosen; inferred from nickel-NTA purification and the pET-28a plasmid; made in house; host or cells: bacterial host inferred from the pET-28a plasmid
T1 sequence (P30038 25-563): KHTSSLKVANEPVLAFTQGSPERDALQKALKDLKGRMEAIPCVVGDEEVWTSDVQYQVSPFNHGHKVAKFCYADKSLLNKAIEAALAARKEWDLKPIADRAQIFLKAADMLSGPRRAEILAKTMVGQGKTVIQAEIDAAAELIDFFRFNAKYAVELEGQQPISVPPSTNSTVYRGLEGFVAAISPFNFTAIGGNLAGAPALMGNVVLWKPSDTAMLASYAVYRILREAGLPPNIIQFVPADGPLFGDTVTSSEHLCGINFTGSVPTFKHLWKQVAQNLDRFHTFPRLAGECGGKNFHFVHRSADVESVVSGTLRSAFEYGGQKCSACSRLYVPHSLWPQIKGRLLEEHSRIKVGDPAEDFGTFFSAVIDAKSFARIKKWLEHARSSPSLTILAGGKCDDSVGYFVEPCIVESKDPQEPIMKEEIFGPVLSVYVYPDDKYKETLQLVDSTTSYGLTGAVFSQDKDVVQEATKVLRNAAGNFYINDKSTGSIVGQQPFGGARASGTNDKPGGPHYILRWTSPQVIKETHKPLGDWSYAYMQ
Text: (§1) ALDH1A1, ALDH1A2, ALDH1A3, ALDH1B1, ALDH2, and ALDH3A1 were produced and purified as previously described. The ALDH1A1 protein used for the ALDH1A1-CM026 crystal contained an Asn-to-Ser SNP at residue 121. Unless where noted otherwise, ALDH1A1 WT protein was used for all aldehyde oxidation assays and for the ALDH1A1-CM053 structure. The full length cDNA for human ALDH4A1 and ALDH5A1 were generously provided by Dania Mochly-Rosen. ALDH4A1 was subcloned into the pET-28a expression plasmid and ALDH5A1 was in pTrcHis-Topo. The carboxyl terminal ALDH domain of rat ALDH1L1 was generously provided by Sergey Krupenko in the pRSET expression plasmid. ALDH1L1, ALDH4A1, and ALDH5A1 were expressed and purified as previously described for ALDH3A1^36 with the following modifications: 1) for ALDH1L1 and ALDH5A1 the medium contained 100 μg/mL ampicillin, 2) cells were lysed via 3 passages through a microfluidizer (DivTech Equipment), and 3) a single passage on a nickel-NTA column was used for purification, without the second Q-sepharose column used to purify ALDH3A1. Purified enzymes used for kinetics were stored at −80° C. ALDH1A1 used for crystallization was stored at −20° C. in a 50% (v/v) solution with glycerol and dialyzed against 10 mM Na^+-ACES pH 6.6 and 1 mM dithiothreitol at 4° C.

ALDH5A1 = biological target: T2, ALDH5A1 (Homo sapiens, UniProt P51649); test: ALDH5A1 selectivity assay; assay type: biochemical; conditions: 20 μM compound
T2 construct: The full length cDNA for human ALDH4A1 and ALDH5A1 were generously provided by Dania Mochly-Rosen; inferred from nickel-NTA purification and the pTrcHis-Topo plasmid; made in house; host or cells: bacterial host inferred from the pTrcHis-Topo plasmid and ampicillin medium
T2 sequence (P51649 48-535): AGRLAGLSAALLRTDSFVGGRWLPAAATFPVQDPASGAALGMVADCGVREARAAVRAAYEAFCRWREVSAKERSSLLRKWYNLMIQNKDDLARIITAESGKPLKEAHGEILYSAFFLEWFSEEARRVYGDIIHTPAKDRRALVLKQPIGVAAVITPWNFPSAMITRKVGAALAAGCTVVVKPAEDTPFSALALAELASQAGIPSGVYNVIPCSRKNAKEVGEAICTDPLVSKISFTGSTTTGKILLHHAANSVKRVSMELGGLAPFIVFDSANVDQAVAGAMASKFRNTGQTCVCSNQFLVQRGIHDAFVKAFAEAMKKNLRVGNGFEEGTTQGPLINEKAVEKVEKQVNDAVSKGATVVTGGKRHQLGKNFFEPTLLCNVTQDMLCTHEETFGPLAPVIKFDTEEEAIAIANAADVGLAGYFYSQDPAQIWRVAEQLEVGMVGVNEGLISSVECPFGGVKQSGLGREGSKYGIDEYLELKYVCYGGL
Text: as §1

[1] = biological target: T3, carboxyl-terminal ALDH domain of rat ALDH1L1 (Rattus norvegicus, UniProt P28037); test: ALDH1L1 selectivity assay; assay type: biochemical; conditions: 20 μM compound
T3 construct: The carboxyl terminal ALDH domain of rat ALDH1L1 was generously provided by Sergey Krupenko in the pRSET expression plasmid; inferred from nickel-NTA purification and the pRSET plasmid; made in house; host or cells: bacterial host inferred from the pRSET plasmid and ampicillin medium
T3 sequence (P28037 417-902 limits assumed): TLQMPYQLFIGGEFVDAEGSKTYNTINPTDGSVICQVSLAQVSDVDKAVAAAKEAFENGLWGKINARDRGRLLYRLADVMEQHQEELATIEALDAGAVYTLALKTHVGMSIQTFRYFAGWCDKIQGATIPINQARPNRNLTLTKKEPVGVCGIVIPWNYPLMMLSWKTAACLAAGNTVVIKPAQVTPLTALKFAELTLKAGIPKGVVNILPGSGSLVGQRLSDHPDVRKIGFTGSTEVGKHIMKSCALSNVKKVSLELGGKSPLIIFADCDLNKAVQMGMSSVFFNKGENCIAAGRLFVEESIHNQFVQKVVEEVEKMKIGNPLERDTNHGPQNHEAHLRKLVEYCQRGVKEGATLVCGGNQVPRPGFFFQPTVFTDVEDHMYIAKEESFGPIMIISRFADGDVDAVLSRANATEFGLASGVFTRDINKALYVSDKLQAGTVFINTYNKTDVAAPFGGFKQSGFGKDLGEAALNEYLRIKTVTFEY
Text: as §1

Structure (SMILES)	percentage of viable cells (IGROV1 cells; 50 μM, trypan blue exclusion)	concentrations giving dose-dependent decrease in cell viability (IGROV1 cells; 1, 5, 10 and 50 μM)	effect on ALDH4A1 (ALDH4A1)	effect on ALDH5A1 (ALDH5A1)	effect on carboxyl-terminal ALDH domain of rat ALDH1L1 [1]
CCOC(=O)CSc1nc2c(sc3ccccc32)c(=O)n1CCCN1CCCC1 [CM037, ethyl-2-((4-oxo-3-(3-(pryrrolidin-1-yl)propyl)-3,4-dihydrobenzo[4,5]thioeno[3,2-d]pyrimidin-2-yl)thio)acetate]	significantly decreased	greater than 10 μM			
CC(C)CCn1c(CN2CCN(C(=O)c3ccco3)CC2)nc2c1c(=O)n(C)c(=O)n2C [CM026]			no effect	no effect	no effect
